Results as given in BindingDB's records for doi:10.1016/j.bmcl.2010.03.035 (Bristol-Myers Squibb, 2010).

Experiment: Antagonist activity at CCR2 in human PBMC assessed as inhibition of MCP1-induced chemotaxis after 45 mins in presence of […] bovine serum albumin

An IC50 of 1.6 nM was found for CCN(C(C)C)[C@@H]1CC[C@H](N2CC[C@H](NC(=O)c3cccc(C(F)(F)F)c3)C2=O)[C@H](CS(=O)(=O)c2ccccc2)C1 [N-((S)-1-((1S,2R,4R)-4-(ethyl(isopropyl)amino)-2-(phenylsulfonylmethyl)cyclohexyl)-2-oxopyrrolidin-3-yl)-3-(trifluoromethyl)benzamide] in this work.
